Results taken from patent US8496952B2, “Antimicrobial compositions comprising silver chloride and benzoisothiazoline” (Clariant Finance (BVI) Limited, priority 2007, dated 2013).

How the values were obtained:
[1] = test system: Staphylococcus aureus DSM 799, Pseudomonas aeruginosa DSM 1128, E-Coli DSM 682, Enterobacter aerogenes NCIMB 10102; assay: Kill-kinetic measurement according to the Clariant method, Ag salt/BIT (Example 1); assay type: cell-based; conditions: summary of Table 1
Description: (kill-kinetic measurement according to the Clariant method) of the composition Ag/BIT in comparison to the individual biocides AgCl, AgNO3, composition 1 and composition 5
(§1) • 900 ml of phosphate buffer pH 7.0: • 600 ml of H2O dest. +117 ml of (b)+183 ml of (a)
(§2) The bacteria are cultivated on a caso agar.
(§3) Description of the kill-kinetic measurement according to the Clariant method After the bacteria have spent 24 hours on the culture medium (caso agar), 10 ml of the 0.1 M phosphate buffer are added thereto and mixed for 20 seconds using a vortex mixer; 9 ml of the 0.1 M buffer solution are added to 1 ml of this solution; in turn, 1 ml of this solution are taken and 9 ml of 0.1 M phosphate buffer are added. The resulting solution is the inoculum with which the test series is carried out.
The concentration data given for the above samples refer in each case to elemental silver and pure BIT (i.e. not in salt form). Thus, for example in sample 4, AgNO3 and BIT were mixed together such that the mixture comprised 26.7 ppm of Ag, calculated as element, and 53.3 ppm of BIT, calculated as pure substance.
The germ count was determined in each case at the start (0 h), after 0.5 h, 1 h; 2 h; 3 h; 5 h; 7 h and 24 h in accordance with the TVC method European Pharmacopoeia 2.6.12.

[2] = test system: Staphylococcus aureus DSM 799, Pseudomonas aeruginosa DSM 1128, E-Coli DSM 682, Enterobacter aerogenes NCIMB 10102; assay: Kill-kinetic measurement according to the Clariant method, supported silver/BIT (Example 2); assay type: cell-based; conditions: summary of Table 2
Description: (Kill-kinetic measurement according to the Clariant method) of silver-BIT mixtures in comparison to the individual biocides silver and BIT
as §1, §2
as §3, with “After” for “Description of the kill-kinetic measurement according to the Clariant method After”
The germ count was determined in each case at the start (0 h), after 0.5 h, 1 h, 2 h; 3 h; 5 h; 7 h and 24 h in accordance with the TVC method European Pharmacopoeia 2.6.12.

[3] = Color stability of Ag/BIT compared with AgCl, AgNO3, JMAC; assay type: physicochemical

Compound	antimicrobial effect / efficiency (in words) [1]	antimicrobial effect / efficiency (in words) [2]	Appearance after ([3]; 5 min)	Appearance after ([3]; 30 min)	Appearance after ([3]; 1 h)	Appearance after ([3]; 2 h)	Appearance after ([3]; 6 h)	Appearance after ([3]; 24 h)	Appearance after ([3]; immediately)
AgCl [Sample 9]	moderate								
AgNO3 [Sample 8]	moderate								
O=c1[nH]sc2ccccc12 [Benzoisothiazoline, 1,2-benzoisothiazolin-3-one]		only develops its antimicrobial effect after many hours							
silver ions		moderate							
[Cl][Ag] [AgCl]			gray	dark gray	dark gray	dark gray	dark gray	dark gray	white
O=[N+]([O-])[O-].[Ag+] [AgNO3 solution, AgNO3]			dark gray	dark gray	dark gray	dark gray	dark gray	dark gray	gray
